Patent US20160175221A1, “COMPOSITION FOR PREVENTING SKIN AGING CONTAINING ALOESIN OR DERIVATIVE THEREOF” (UNIVERA INC., priority 2013, published 2016)

Key:
[1] = system: type I procollagen peptide (PIP); assay: PIP level in medium by procollagen type I C-peptide EIA kit; assay type: cell-based, human; conditions: 0.01 μg/ml and 0.1 μg/ml
Description: (§1) The concentrations of MMP-1 and PIP in the medium were determined using commercially available enzyme-linked immunosorbent assay (ELISA) kits (Human Total MMP-1 Kit, R&D Systems, Inc., Minneapolis, Minn., USA and procollagen type I C-peptide enzyme immunoassay (EIA) kit, Takara Inc., Shiga, Japan) according to the manufacturer's instructions. Each sample was analyzed in triplicate.

MMP-1 = MMP-1 level in medium by ELISA (Human Total MMP-1 Kit); assay type: cell-based; conditions: NHDFs after UVB irradiation (144 mJ/cm^2), 72 hours, FIG. 2
Description: as §1

[2] = system: normal human dermal fibroblasts (NHDFs); assay: MTT colorimetric assay, cytotoxicity of treated cells; conditions: before and after UVB irradiation, 0.01 and 0.1 μg/ml before, 0.1 and 1 μg/ml after, 72 hours after treatment, FIG. 1
MMP-1 mRNA = assay: RT-PCR of MMP-1 mRNA in UVB irradiated fibroblasts; assay type: cell-based, human; conditions: NHDFs after UVB irradiation, 0.01 μg/ml, 0.1 μg/ml and 1 μg/ml, 24 hours; ratio to GAPDH; FIG. 4
Description: (§2) After UVB irradiation, separation of RNA from aloesin treated normal human dermal fibroblasts (NHDFs) was performed using TRIZOL reagent (Invitrogen Life Technologies, Carlsbad, […]) according to the manufacturer's instructions. RNA (5 μg) was subjected to reverse transcription using 200 units of reverse transcriptase and 0.5 μg/μl of oligo-(dT) 15 primer (Bioneer Inc., Korea). The reaction was performed at 42° C. for 60 minutes, and then terminated by heating at 94° C. for five minutes. PCR amplification of cDNA template was performed using PCR premix (Bioneer Inc.) and the following primer pairs: MMP-1, forward 5′-ATTCTACTGATATCGGGGCTTTGA-3′, reverse 5′-ATGTCCTTGGGGTATCCGTGTAG-3′; procollagen type I, forward 5′-CTCGAGGTGGACACCACCCT-3′, reverse 5′-CAGCTGGATGGCCACATCGG-3′; and glyceraldehydes-3-phosphate […] (GAPDH), sense 5′-ACCACAGTCCATGCCATCAC-3′, antisense 5′-CCACCACCCTGTTGCTGTAC-3′. […]
(§3) To investigate mRNA levels of aloesin treated cells (24 hours after treatment), the concentration of MMP-1 and procollagen type I was measured in UVB irradiated normal human dermal fibroblasts. To quantify the data, the ratio of MMP-1/GAPDH and procollagen type I/GAPDH in normal human dermal fibroblasts was randomly set to 1.0, based on band signal intensity.

procollagen type I mRNA = assay: RT-PCR of procollagen type I mRNA in UVB irradiated fibroblasts; assay type: cell-based, human; conditions: NHDFs after UVB irradiation, 0.01 μg/ml, 0.1 μg/ml and 1 μg/ml, 24 hours; ratio to GAPDH; FIG. 4
Description: as §2, §3

[3] = NHDFs after UVB irradiation, 72 hours, FIG. 3b
[4] = NHDFs prior to UVB irradiation, FIG. 3a

| SMILES | PIP levels [1, 3] | PIP levels [1, 4] | MMP-1 levels (MMP-1; 1 μg/ml) | MMP-1 levels (MMP-1; 0.1 μg/ml) | cytotoxicity [2] | mRNA expression of MMP-1 (MMP-1 mRNA) | mRNA expression of procollagen type I (procollagen type I mRNA) |
| --- | --- | --- | --- | --- | --- | --- | --- |
| COc1cc(C)c2c(=O)cc(C[C@H](C)O)oc2c1[C@@H]1O[C@H](CO)[C@@H](O)[C@H](O)[C@H]1OC(=O)/C=C/c1ccc(O)cc1 [isoaloeresin D] | significantly increased PIP levels | significantly increased PIP levels | significantly decreased MMP-1 levels | – | – | – | – |
| CC(=O)Cc1cc(=O)c2c(C)cc(O)c([C@@H]3O[C@H](CO)[C@@H](O)[C@H](O)[C@H]3OC(=O)/C=C/c3ccc(O)cc3)c2o1 [aloeresin A] | significantly increased PIP levels | significantly increased PIP levels | – | – | – | – | – |
| CC(=O)Cc1cc(=O)c2c(C)cc(O)c([C@@H]3O[C@H](CO)[C@@H](O)[C@H](O)[C@H]3O)c2o1 [aloesin] | significantly increased PIP levels | significantly increased PIP levels | – | significantly decreased MMP-1 levels | decreased cytotoxicity | decreased mRNA expression of MMP-1 | significantly increased mRNA expression of procollagen type I |
